Publication PMC12627627 (Nature Communications, 2025)
Substitutions are numbered along the chain they refer to. “And” between values parts separate entries of the source, which are not always exact repeats. Equal values may be shown once. Values belong to the molecule of their own block, whether it stands above or below them.

Experiments:
Format in all cases: binding
[1] = target: T1, R12 domain of RyR2 (Homo sapiens, UniProt Q92736); assay: ITC, R12 domain of RyR2; settings: absence or presence of AMP-PCP or ADP
T1 construct: RyR1 854–1054, RyR2 865–1065, RyR3 853–1053; made in house; host or cells: E. coli BL21 (DE3)
T1 sequence (Q92736 865-1065): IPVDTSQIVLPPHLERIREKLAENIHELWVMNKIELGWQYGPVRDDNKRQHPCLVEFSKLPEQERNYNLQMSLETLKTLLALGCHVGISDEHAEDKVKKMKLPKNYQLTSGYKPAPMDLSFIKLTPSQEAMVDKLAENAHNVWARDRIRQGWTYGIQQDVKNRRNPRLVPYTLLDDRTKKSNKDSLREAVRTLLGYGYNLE
Description: (§1) The plasmids were subsequently transformed into E. coli BL21 (DE3) cells (NEB, USA) and cultured in Luria-Bertani (LB) media at 37 °C. Protein expression was induced with 0.4 mM isopropyl β-D-thiogalactoside (IPTG) when the optical density (OD)600 reached ~0.8, followed by incubation at 18 °C for 12 h. The cells were harvested via centrifugation at 5,000 × g for 15 min at 4 °C and homogenized in Buffer A (10 mM HEPES, pH 7.4, 250 mM KCl) supplemented with 25 µg/mL DNaseI, 25 µg/mL lysozyme, 1 mM phenylmethylsulfonyl fluoride (PMSF), and 20 mM imidazole. The homogenate was centrifuged at 12,000 × g for 45 min, and the supernatant was filtered through a syringe filter (0.22 µm).
(§2) Purified R12 domain protein from the three RyR isoforms, fused with hexahistidine-tagged MBP (HMT-R12) was dialyzed overnight at 4 °C in ITC buffer (200 mM HEPES, pH 7.4, 150 mM KCl). ITC experiments were performed using a PEAQ-ITC instrument (Malvern, UK) at 25 °C with a stirring speed of 750 rpm. […] For the ternary binding experiments, 500 μM or 5 mM AMP-PCP/ADP was preincubated with both the titrants and titrates. […] The data was fit to a one-site fitting model after background buffer subtraction. The RyR1 R12 mutants were generated using a QuikChange mutagenesis kit (Stratagene) according to the manufacturer’s protocol, with primer sequences listed in Supplementary Table 3.

[2] = target: T2, RyR1-W881A R12 (Homo sapiens, UniProt P21817, W881A); assay: ITC, RyR1 R12 W881A; settings: RyR1-W881A R12, no nucleotide
T2 construct: RyR1 854–1054, RyR2 865–1065, RyR3 853–1053; made in house; host or cells: E. coli BL21 (DE3)
T2 sequence (P21817 854-1054 W881A): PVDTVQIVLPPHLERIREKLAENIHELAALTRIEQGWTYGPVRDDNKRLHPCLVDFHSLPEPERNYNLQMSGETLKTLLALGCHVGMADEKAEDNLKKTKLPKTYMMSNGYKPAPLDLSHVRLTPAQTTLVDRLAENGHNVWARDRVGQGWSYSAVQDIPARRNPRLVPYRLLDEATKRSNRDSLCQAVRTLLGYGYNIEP
Description: as §1, §2

[3] = target: T3, R12 domain of RyR1 (Homo sapiens, UniProt P21817); assay: ITC, R12 domain of RyR1
T3 construct: RyR1 854–1054, RyR2 865–1065, RyR3 853–1053; made in house; host or cells: E. coli BL21 (DE3)
T3 sequence (P21817 854-1054): T2 sequence (P21817 854-1054 W881A) with A28W
Description: as §1, §2

[4] = target: T4, R12 domain of RyR3 (Homo sapiens, UniProt Q15413); assay: ITC, R12 domain of RyR3
T4 construct: RyR1 854–1054, RyR2 865–1065, RyR3 853–1053; made in house; host or cells: E. coli BL21 (DE3)
T4 sequence (Q15413 853-1053): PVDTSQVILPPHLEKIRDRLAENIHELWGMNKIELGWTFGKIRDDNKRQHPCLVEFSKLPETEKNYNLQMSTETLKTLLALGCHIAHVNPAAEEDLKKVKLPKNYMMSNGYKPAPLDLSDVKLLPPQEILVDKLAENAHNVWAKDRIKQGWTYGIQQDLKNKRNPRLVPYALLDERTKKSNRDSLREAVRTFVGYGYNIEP
Description: as §1, §2

[5] = RyR1 R12, no nucleotide, ITC 25 °C
[6] = RyR3 R12, no nucleotide, ITC 25 °C

Kd [2]: 358 ± 138 µM
No of Sites (N) [2]: 1.04 ± 0.35
ΔH [2]: -35.60 kcal/mol
−TΔS [2]: 30.90 kcal/mol
Kd ([3]; RyR1 R12 + 500 µM ADP): 0.241 ± 0.031 µM
No of Sites (N) ([3]; RyR1 R12 + 500 µM ADP): 0.652 ± 0.16
ΔH ([3]; RyR1 R12 + 500 µM ADP): -7.92 ± 0.91 kcal/mol
−TΔS ([3]; RyR1 R12 + 500 µM ADP): -1.11 kcal/mol
No of Sites (N) ([3]; RyR1 R12 + 500 µM AMP-PCP): 0.904 ± 0.52
ΔH ([3]; RyR1 R12 + 500 µM AMP-PCP): -2.99 ± 0.47 kcal/mol
−TΔS ([3]; RyR1 R12 + 500 µM AMP-PCP): -6.48 kcal/mol
Kd ([3]; RyR1 R12 + 5 mM ADP): 0.06 ± 0.012 µM
No of Sites (N) ([3]; RyR1 R12 + 5 mM ADP): 0.489 ± 0.28
ΔH ([3]; RyR1 R12 + 5 mM ADP): -8.45 ± 0.94 kcal/mol
−TΔS ([3]; RyR1 R12 + 5 mM ADP): -1.40 kcal/mol
Kd ([3]; RyR1 R12 + 5 mM AMP-PCP): 0.046 ± 0.014 µM
No of Sites (N) ([3]; RyR1 R12 + 5 mM AMP-PCP): 0.718 ± 0.50
ΔH ([3]; RyR1 R12 + 5 mM AMP-PCP): -7.75 ± 0.12 kcal/mol
−TΔS ([3]; RyR1 R12 + 5 mM AMP-PCP): -2.26 kcal/mol
No of Sites (N) ([3]; RyR1 R12, no nucleotide): 0.810 ± 0.21
ΔH ([3]; RyR1 R12, no nucleotide): -80 kcal/mol
−TΔS ([3]; RyR1 R12, no nucleotide): 75.60 kcal/mol
Kd [3, 5]: 595 µM and 596 µM
Kd ([4]; RyR3 R12 + 500 µM ADP): 0.362 ± 0.086 µM
No of Sites (N) ([4]; RyR3 R12 + 500 µM ADP): 0.613 ± 0.82
ΔH ([4]; RyR3 R12 + 500 µM ADP): -6.16 ± 0.15 kcal/mol
−TΔS ([4]; RyR3 R12 + 500 µM ADP): -2.63 kcal/mol
Kd ([4]; RyR3 R12 + 500 µM AMP-PCP): 0.111 ± 0.025 µM
No of Sites (N) ([4]; RyR3 R12 + 500 µM AMP-PCP): 0.760 ± 0.45
ΔH ([4]; RyR3 R12 + 500 µM AMP-PCP): -7.90 ± 0.11 kcal/mol
−TΔS ([4]; RyR3 R12 + 500 µM AMP-PCP): -1.59 kcal/mol
Kd ([4]; RyR3 R12 + 5 mM ADP): 0.052 ± 0.013 µM
No of Sites (N) ([4]; RyR3 R12 + 5 mM ADP): 0.813 ± 0.48
ΔH ([4]; RyR3 R12 + 5 mM ADP): -7.35 ± 0.11 kcal/mol
−TΔS ([4]; RyR3 R12 + 5 mM ADP): -2.59 kcal/mol
Kd ([4]; RyR3 R12 + 5 mM AMP-PCP): 0.048 ± 0.021 µM
No of Sites (N) ([4]; RyR3 R12 + 5 mM AMP-PCP): 0.854 ± 0.21
ΔH ([4]; RyR3 R12 + 5 mM AMP-PCP): -7.80 ± 0.15 kcal/mol
−TΔS ([4]; RyR3 R12 + 5 mM AMP-PCP): -2.18 kcal/mol
No of Sites (N) ([4]; RyR3 R12, no nucleotide): 1.02 ± 0.41
ΔH ([4]; RyR3 R12, no nucleotide): -80 kcal/mol
−TΔS ([4]; RyR3 R12, no nucleotide): 75.40 kcal/mol
Kd [4, 6]: 394 ± 7.05 µM
Compound: O=C1CN(/N=C/c2ncc(-c3ccc(Br)cc3)o2)C(=O)N1 [AZU, Azumolene]
binding to RyR2 R12 domain by ITC [1]: neither DAN nor AZU exhibited detectable binding

Compound: O=C(C[C@@H](NCCCO)C(=O)O)Nc1ccc2ccccc2c1 [RI-2]
binding to RyR2 R12 domain by ITC [1]: no detectable binding
Kd [2]: 292 ± 22.5 µM
No of Sites (N) [2]: 0.94 ± 0.46
ΔH [2]: -10.7 ± 3.83 kcal/mol
−TΔS [2]: 4.71 kcal/mol
Kd ([3]; RyR1 R12 + 500 µM ADP): 49.1 ± 50.1 µM
No of Sites (N) ([3]; RyR1 R12 + 500 µM ADP): 0.605 ± 0.21
ΔH ([3]; RyR1 R12 + 500 µM ADP): -3.08 ± 0.20 kcal/mol
−TΔS ([3]; RyR1 R12 + 500 µM ADP): -4.30 kcal/mol
Kd ([3]; RyR1 R12 + 500 µM AMP-PCP): 1.75 ± 0.29 µM
No of Sites (N) ([3]; RyR1 R12 + 500 µM AMP-PCP): 0.721 ± 0.12
ΔH ([3]; RyR1 R12 + 500 µM AMP-PCP): -5.47 ± 0.17 kcal/mol
−TΔS ([3]; RyR1 R12 + 500 µM AMP-PCP): -2.39 kcal/mol
Kd ([3]; RyR1 R12 + 5 mM ADP): 3.86 ± 0.975 µM
No of Sites (N) ([3]; RyR1 R12 + 5 mM ADP): 0.912 ± 0.43
ΔH ([3]; RyR1 R12 + 5 mM ADP): -15.09 ± 11.60 kcal/mol
−TΔS ([3]; RyR1 R12 + 5 mM ADP): 10.1 kcal/mol
Kd ([3]; RyR1 R12 + 5 mM AMP-PCP): 0.56 ± 0.17 µM
No of Sites (N) ([3]; RyR1 R12 + 5 mM AMP-PCP): 0.547 ± 0.43
ΔH ([3]; RyR1 R12 + 5 mM AMP-PCP): -7.05 ± 0.69 kcal/mol
−TΔS ([3]; RyR1 R12 + 5 mM AMP-PCP): -0.11 kcal/mol
No of Sites (N) ([3]; RyR1 R12, no nucleotide): 0.519 ± 0.25
ΔH ([3]; RyR1 R12, no nucleotide): -5.61 ± 0.73 kcal/mol
−TΔS ([3]; RyR1 R12, no nucleotide): 0.944 kcal/mol
Kd [3, 5]: 159 µM and 158 µM
Kd ([4]; RyR3 R12 + 500 µM ADP): 28.6 ± 18.7 µM
No of Sites (N) ([4]; RyR3 R12 + 500 µM ADP): 0.509 ± 0.54
ΔH ([4]; RyR3 R12 + 500 µM ADP): -6.40 ± 1.66 kcal/mol
−TΔS ([4]; RyR3 R12 + 500 µM ADP): -0.27 kcal/mol
Kd ([4]; RyR3 R12 + 500 µM AMP-PCP): 7.85 ± 2.69 µM
No of Sites (N) ([4]; RyR3 R12 + 500 µM AMP-PCP): 0.604 ± 0.31
ΔH ([4]; RyR3 R12 + 500 µM AMP-PCP): -3.25 ± 0.40 kcal/mol
−TΔS ([4]; RyR3 R12 + 500 µM AMP-PCP): -3.72 kcal/mol
Kd ([4]; RyR3 R12 + 5 mM ADP): 12.9 ± 6.2 µM
No of Sites (N) ([4]; RyR3 R12 + 5 mM ADP): 0.694 ± 0.42
ΔH ([4]; RyR3 R12 + 5 mM ADP): -11.9 ± 4.87 kcal/mol
−TΔS ([4]; RyR3 R12 + 5 mM ADP): 5.75 kcal/mol
Kd ([4]; RyR3 R12 + 5 mM AMP-PCP): 3.39 ± 0.83 µM
No of Sites (N) ([4]; RyR3 R12 + 5 mM AMP-PCP): 0.508 ± 0.21
ΔH ([4]; RyR3 R12 + 5 mM AMP-PCP): -4.58 ± 0.28 kcal/mol
−TΔS ([4]; RyR3 R12 + 5 mM AMP-PCP): -2.89 kcal/mol
No of Sites (N) ([4]; RyR3 R12, no nucleotide): 0.970 ± 0.19
ΔH ([4]; RyR3 R12, no nucleotide): -16.2 ± 16.70 kcal/mol
−TΔS ([4]; RyR3 R12, no nucleotide): 10.6 kcal/mol
Kd [4, 6]: 178 ± 93.1 µM
